Experimental data published in patent US7972800B2, “Screening method for binding property or signal transduction alterations” (Takeda Pharmaceutical Company Limited, priority 2003, dated 2011).

Key:
mouse GPR39 = target: T1, mouse GPR39 (Mus musculus, UniProt Q5U431, T447P); type: cell-based; details: FLIPR, Fluo-3AM (FIG. 14 through FIG. 18)
T1 construct: expressed in transfected cells; host or cells: CHO cells, vector pAKKO-111H
T1 sequence (Q5U431 1-456 T447P): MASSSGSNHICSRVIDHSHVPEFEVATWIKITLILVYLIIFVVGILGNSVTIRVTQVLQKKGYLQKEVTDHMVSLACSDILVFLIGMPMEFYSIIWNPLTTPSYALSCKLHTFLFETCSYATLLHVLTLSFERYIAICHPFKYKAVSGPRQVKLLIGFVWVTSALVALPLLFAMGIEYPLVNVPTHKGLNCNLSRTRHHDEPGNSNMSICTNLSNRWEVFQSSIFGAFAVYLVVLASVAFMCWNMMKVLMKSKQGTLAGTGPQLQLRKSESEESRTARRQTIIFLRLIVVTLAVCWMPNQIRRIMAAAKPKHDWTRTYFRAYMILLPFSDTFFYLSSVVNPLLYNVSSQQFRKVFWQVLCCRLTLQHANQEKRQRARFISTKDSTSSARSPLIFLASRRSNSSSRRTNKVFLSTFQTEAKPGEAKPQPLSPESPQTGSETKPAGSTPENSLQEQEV
Protocol: (§1) Using the CHO cell line where rat GPR39 was stably expressed, the agonist activity of metal ions was detected using FLIPR in terms of the intracellular calcium-increasing reaction as an indicator. The CHO cell line used, wherein rat GPR39 was stably expressed, was cultured in HAM's αMEM (Invitrogen Corp.) containing 10% calf fetal serum (Invitrogen Corp.). On the day before the assay was conducted, the human GPR39-expressing CHO cell line was cultured in a culture flask to reach a confluent state. After washing with PBS, the cells were scraped off using trypsin and centrifuged for recovery. The cells were then suspended in medium and the suspension was adjusted to 3×10^5 cells/ml. Then, the suspension was dispensed onto a black walled 96-well plate (Costar) in 100 μl each per well, followed by incubation overnight in a CO2 incubator.
(§2) On the day when the assay was conducted, various test samples were added to the cells and the changes of intracellular calcium levels in this case were determined by FLIPR (Molecular Device). In order to determine the changes in intracellular calcium levels on FLIPR, the cells were pre-treated by the following procedures. First, for the purpose of adding a fluorescent dye Fluo-3AM (DOJIN) to the cells or washing the cells immediately before the FLIPR assay, an assay buffer was prepared. A solution was prepared by adding 20 ml of 1M HEPES (pH 7.4) (DOJIN) to 1000 ml of HBSS (Invitrogen Corp.) (hereinafter HBSS/HEPES solution), to which solution was added 10 ml of a solution mixture obtained by dissolving 710 mg of Probenecid (Sigma) in 5 ml of 1N NaOH and further adding 5 ml of HBSS/HEPES solution thereto. The resulting solution was used as the assay buffer. Next, 50 μg of Fluo-3AM was dissolved in 21 μl of DMSO (DOJIN) and an equal volume of 20% Pluronic acid (Molecular Probes) was added to and mixed with the solution. The mixture was then added to 10.6 ml of the assay buffer supplemented with 105 μl of fetal calf serum to prepare a fluorescent dye solution. The medium for the CHO cells where human GPR39 was stably expressed was removed. Immediately thereafter, the fluorescent dye solution was dispensed in 100 μl each/well and the cells were incubated in a CO2 incubator for an hour so that the fluorescent dye was taken up into the cells. The cells after the incubation was washed with the assay buffer described above and set on FLIPR. A test sample to be added to the CHO cells where rat GPR39 was stably expressed was prepared using the assay buffer and set on FLIPR at the same time. Following the pre-treatment above, the changes in intracellular calcium levels after the addition of each test sample were determined by FLIPR.
Using the CHO cell line where mouse GPR39 was stably expressed, the agonist activity of metal ions was detected on FLIPR in accordance with the procedures described in EXAMPLE 5, in terms of the intracellular calcium-increasing reaction as an indicator.

rat GPR39 = type: cell-based; details: FLIPR, Fluo-3AM (FIG. 9 through FIG. 13)
Protocol: as §1, §2

human GPR39 = target: T2, human GPR39 (Homo sapiens, UniProt O43194); type: cell-based; design: expressed in transfected cells; host or cells: CHO cells, vector pAKKO-111H; details: FLIPR, Fluo-3AM; metal salt added, 10-300 μM (FIGS. 1-4)
T2 sequence (O43194 1-453): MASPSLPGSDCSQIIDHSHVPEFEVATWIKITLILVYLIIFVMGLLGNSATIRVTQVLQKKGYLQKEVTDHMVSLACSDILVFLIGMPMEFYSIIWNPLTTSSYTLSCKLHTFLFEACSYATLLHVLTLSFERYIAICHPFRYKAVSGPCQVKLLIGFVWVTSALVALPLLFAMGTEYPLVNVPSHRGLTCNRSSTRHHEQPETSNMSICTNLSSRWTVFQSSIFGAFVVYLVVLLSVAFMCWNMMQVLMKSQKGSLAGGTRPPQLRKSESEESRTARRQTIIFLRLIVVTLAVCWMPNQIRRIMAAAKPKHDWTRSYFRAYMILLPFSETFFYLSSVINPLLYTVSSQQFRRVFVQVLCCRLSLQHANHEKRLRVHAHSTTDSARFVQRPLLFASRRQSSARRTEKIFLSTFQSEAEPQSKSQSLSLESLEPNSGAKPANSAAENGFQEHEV
Protocol: The human GPR39-GFP expression vector-transfected CHO cell line produced in EXAMPLE 1 (CHO/hGPR39-GFP) was diluted in 3×10^4 cells/100 μl. The dilution was dispensed onto a Black walled 96-well plate (Costar) in 100 μl each per well, followed by incubation overnight in a CO2 incubator. Changes in intracellular calcium levels were determined by the following method using FLIPR (Molecular Device). In 21 μl of DMSO (DOJIN), 50 μg of Fluo-3AM (DOJIN) was dissolved and an equal volume of 20% Pluronic acid (Molecular Probes) was added to the solution. After mixing them, the resulting mixture was added to 10.6 ml of assay buffer [prepared by adding 20 ml of 1M HEPES (pH 7.4) (DOJIN) to HBSS (Invitrogen Corp.) and further adding to the solution 10 ml of a solution mixture, which mixture was prepared by dissolving 710 mg of Probenecid (Sigma) in 5 ml of 1N NaOH and then adding thereto 5 ml of the HBSS/HEPES solution above] supplemented with 105 μl of fetal calf serum to prepare a fluorescent dye solution. The medium in the cell plate was removed. Immediately thereafter, the fluorescent dye solution was dispensed in 100 μl each/well and the cells were incubated in a CO2 incubator for an hour so that the fluorescent dye was taken up into the cells. The cells after the incubation were washed with the assay buffer described above and set on FLIPR. Compounds of metal elements to be added to the cells were diluted to the respective concentration with the assay buffer. The dilutions were dispensed onto plates for ligands and set on FLIPR. Following the pre-treatment above, changes in intracellular calcium levels after addition of metal elements were determined by FLIPR to study agonist activities.

[1] = test system: CHO cells where the receptor was not expressed or GPCR other than GPR39 was expressed; type: cell-based; details: FLIPR; control cells
[2] = test system: bladder (micturition) of conscious rats; experiment: Cystometry in conscious rats with intravesical infusion; type: in vivo, rat; details: female SD rats, protamine sulfate 10 mg/mL in PBS infused into the bladder for an hour
Protocol: Female SD rats of 9-10 weeks old were anaesthetized by intramuscular injection with 0.1 ml/100 g of a solution obtained by mixing ketamine (50 mg/mL) and xylazine (20 mg/mL) in 5:1. The bladder was then exposed via a midline incision and a hole was made with a 20-G needle to insert a polyethylene tube (PE-50), which tube was sutured to the bladder with cotton thread. The polyethylene tube cannulated into the bladder was cut at a length of about 1 cm, which was connected to a silicon tube (No. 00) and exposed to the dorsum through the skin. The animals were housed in individual cages until they were used for the experiments.
One day after the surgery, the animal was anesthetized with halothane and placed in Ballman cages under restricted conditions. After a three-way cock was connected to the tube cannulated into the bladder, a saline infusion tube was connected to a cystometry tube (resistance to infusion). An electronic scale was placed under the Ballman cages and the micturition volume was measured at the same time. When the anesthetic completely worn off, the infusion of saline into the bladder commenced and the bladder pressure and micturition volume were recorded on a personal computer via an A-D converter (MP-100, BIOPAC Systems) and analyzed using a dedicated software (AcqKnowledge, BIOPAC Systems).
Saline was infused into the bladder at the rate of 6 ml/hr and the infusion was continued for 1 or 2 hours until stable micturition was recorded. In order to enhance the permeability of a drug into the bladder, protamine sulfate (10 mg/mL in PBS) was infused into the bladder for an hour (Chuang Y, et. al., 2003, Urology, 63, 664-670). […] Then, saline was reinfused into the bladder and micturition was recorded at least 2 hours until protamine was completely washed off. […] Mean micturition intervals during from about 30 minutes to about 60 minutes after starting the infusion of CuCl2 were calculated to find a ratio to mean micturition intervals for about 30 minutes before the infusion of CuCl2 (% of the pre-value).

In the case of `[Cl][Co][Cl]` [cobalt chloride], the “intracellular calcium levels of CHO/mGPR39” value (mouse GPR39) is reported as “dose-dependently increased” and the “intracellular calcium levels of CHO/rGPR39” value (rat GPR39) is reported as “dose-dependently increased”.
In the case of `[Cl-].[Cl-].[Zn+2]` [zinc chloride], the “intracellular calcium levels of CHO/mGPR39” value (mouse GPR39) is reported as “dose-dependently increased”, the “intracellular calcium levels of CHO/rGPR39” value (rat GPR39) is reported as “dose-dependently increased” and the “intracellular calcium levels of CHO/hGPR39-GFP” value (human GPR39) is reported as “dose-dependently increased”. The “intracellular calcium response in CHO cells without the receptor or with GPCR other than GPR39” value [1] was “no such response was observed”.
protamine sulfate was tested, and the “micturition intervals compared to those prior to the infusion” value [2] was “Any substantial change in micturition intervals was noted”.
`[Cl][Cd][Cl]` [cadmium chloride] was tested, and the “intracellular calcium levels of CHO/mGPR39” value (mouse GPR39) was “dose-dependently increased”, the “intracellular calcium levels of CHO/rGPR39” value (rat GPR39) was “dose-dependently increased” and the “intracellular calcium levels of CHO/hGPR39-GFP” value (human GPR39) was “dose-dependently increased”. The “intracellular calcium response in CHO cells without the receptor or with GPCR other than GPR39” value [1] was “no such response was observed”.
